Experiments:
[1] = system: esterase derived from Ideonella sp. 0-0013 strain; assay: Decomposing activities of methyl palmitate or methyl 3-hydroxypalmitate (Test Example 2, substrate selectivity); assay type: biochemical; conditions: for Decomposition: 0.5 mg of substrate; for Activity ratio: methyl 3-hydroxypalmitate = 100.0
Experimental: The culture broth obtained by cultivating the strain in the same manner as that in Example 1 was centrifuged to obtain a supernatant and microbial cells. The supernatant or the microbial cells were suspended in 200 μL of 10 mM potassium phosphate buffer (pH 7.0) containing 0.5 mg of methyl 3-hydroxypalmitate, and the resultant was allowed to react at 43° C. for 12 hours.
After completion of the reaction, 500 μL of dichloromethane was added to the reaction mixture to extract 3-hydroxypalmitic acid. The extract was subjected to gas chromatography (Stabilwax-DA, 30 m×0.53 mm×0.25 μm) to measure the decomposing activity of methyl 3-hydroxypalmitate.
0.5 mg of methyl palmitate or methyl 3-hydroxypalmitate was reacted and analyzed in the same manner as that in Example 1 and the decomposing activities of the compounds were measured in each case.

[2] = system: esterase derived from Ideonella sp. 0-0013 strain; assay: Inhibition, activation and stabilization of the esterase; assay type: biochemical
Experimental: Methyl 3-hydroxypalmitate is detected by gas chromatography with a column of Stabilwax-DA, 30 m×0.53 mm×0.25 μm. The 3-hydroxypalmitic acid generated by hydrolysis of the ester can be detected by the same gas chromatography as described above. • (2) Optimal temperature for functioning: The optimal temperature of the enzyme of the present invention is 37° C. • (3) Optimal pH and stable pH range: pH 7 or more to pH 10 or less. • (4) Temperature stability: 97% of the enzyme is stable at 43° C., 54% of the enzyme is stable at 50° C., and 38% of the enzyme is stable at 60° C. • (5) Inhibition, activation, and stabilization: Activated by sodium ion and potassium ion, and inhibited by strontium ion, iron ion (divalent), and methyl palmitate. • (6) Molecular weight: About 46,500 Da (by SDS-PAGE), about 41,000 Da (by a gel filtration method). • (7) Isoelectric point: pI 4 (by polyacrylamide gel isoelectric focusing method).

Row | SMILES | hydrolytic activity relative to that for methyl palmitate [1] | Decomposition [1] [%] | Activity ratio [1] | Inhibition, activation, and stabilization (effect on the esterase) [2]
1 | CCCCCCCCCCCCCC(O)CC(=O)OC (stereo not shown) [Methyl 3-hydroxypalmitate, methyl 3-hydroxypalmitate] | about 5 times | 50.3 | 100.0 | 
2 | CCCCCCCCCCCCCCCC(=O)OC [Methyl palmitate, methyl palmitate] |  | 10.3 | 20.5 | inhibited
3 | [Fe+2] [iron ion (divalent)] |  |  |  | inhibited
4 | [K+] [potassium ion] |  |  |  | Activated
5 | [Na+] [sodium ion] |  |  |  | Activated
6 | [Sr+2] [strontium ion] |  |  |  | inhibited

Source: patent US7341857B2, “Production of beta-hydroxypalmitate methyl esterase from Ideonella sp.0-0013 (FERM BP-08660)” (Incorporated Administrative Agency National Agriculture and …, priority 2003, dated 2008)
